Article PMC5667506, “Potent and selective inhibition of SH3 domains with dirhodium metalloinhibitors” (Chemical Science, 2015)
Several values for one entry are separate records, joined by “and”; a condition that tells them apart may be missing. Equal values may be shown once. Rh2(OAc)3 = dirhodium(II) triacetate, bound to the side-chain carboxylate

Molecular target: T1, Lyn SH3 domain (Homo sapiens, UniProt P07948)
T1 construct: The lyn SH3 domain was amplified by PCR using Phusion DNA polymerase; GST (N, cleaved yes); made in house; host or cells: E. coli BL21 (DE3)
Test: ITC binding of metallopeptides to Lyn SH3 domain
From the text: The His96 is unique among Src-family sequences, and the His78 appears only in Hck and Lck. Individual amino-acid alterations are the only factors that might distinguish the nearly identical secondary structures and peptide-binding preferences of Src-family SH3 domains (cf. Fig. 1a and b). Based on a Src-family SH3-binding sequence (VSL12),[37] known to bind with similar affinity across Src-family SH3 domains,[38] we made metallopeptides with rhodium in different sites near the beginning of the SH3-binding peptide. […] The optimal metallopeptide, S2E^Rh, bound to Lyn with 6 nM affinity. The accuracy of ITC data is reduced for C values >1000 (C = [protein]/K d). Under these conditions the distribution of data points on the isotherm reduces the precision of the global fit. Since the enthalpic contributions to binding in the formation of the complexes described in this work were high, we were able to use a low protein concentration (4 μM) which ensured that our C values were well below this upper range. […] In broad terms, the thermodynamics—favourable enthalpy and unfavourable entropy—are consistent with previous examinations of peptide–SH3 binding (see Table S1 ^† for thermodynamic data).[39] Moving the location of the rhodium center toward the N-terminus, away from the histidine, led to a drop in binding affinity. The N13D^Rh metallopeptide, a convenient negative control with the rhodium center too far for histidine interactions, binds with micromolar activity, similar to simple SH3 binding of the parent peptide. We conclude that the vast affinity improvement is due to rhodium coordination to unique histidine residue(s).
All chemical reagents were purchased from Sigma-Aldrich and were used without further purification.
Peptide synthesis. All peptides were synthesized manually or with an AAPPTEC APEX 396 Automated Multipeptide Synthesizer using standard solid-phase Fmoc protocols.1,2 Peptides were prepared as C-terminal amides using Rink amide MBHA resin (AAPPTEC) and were acetylated at the N-terminus prior to cleavage from the resin. Peptides and metallopeptides were purified by reverse-phase HPLC.
HPLC separation. Reverse-phase HPLC was performed on a Shimadzu CBM-20A instrument with Phenomenex Jupiter 4μ Proteo 90A (250 × 15 mm preparative) and Phenomenex Jupiter 4μ Proteo 90A (250 × 4.6 mm analytical) columns. The columns were eluted with a gradient of acetonitrile in water (10-90%) (flow rates of 8 mL/min and 1 mL/min for preparative and analytical columns, respectively). Trifluoroacetic acid (0.1%) was added to all eluents. […]
ITC analysis. ITC experiments were carried out on a VP-ITC instrument (MicroCal) at 25 °C. Titrations of 275 μM peptide into 18 μM SH3 domain proteins were used for all titrations, except for the titration of S2ERh into Lyn SH3 domain, where the lower concentrations of 69 µM S2ERh peptide and 4 µM Lyn SH3 were used to attain a c-value for the titration within the accepted limts for ITC experiments ([…]).3
Heats of dilutions were measured independently for each experiment by titrating 275 μM peptide into buffer (20 mM phosphate buffer, pH 7, 150 mM NaCl, 1 mM EDTA). All experimental data were fitted using a one set of sites binding model in Origin software (MicroCal) except for the data with Hck SH3 domain. With Hck only, the non-peptide specific binding of dirhodium tetraacetate to Hck SH3 domain could not be treated as negligible, despite the very weak interaction (88 µM), due to the larger enthalpy contribution observed for non-specific binding to this SH3 domain, so the titrations of peptide into Hck were fitted using a 2 set of sites binding model where the stoichiometry for the second set of sites was fixed at 2.0. […]
Mass spectrometry. ESI-MS was performed on a Bruker Daltonics micrOTOF instrument.
Known compounds and proteins. Several metallopeptides (S2ERh, L3ERh, R5ERh, and 13DRh) were reported previously and […]

T1 sequence (P07948 62-121): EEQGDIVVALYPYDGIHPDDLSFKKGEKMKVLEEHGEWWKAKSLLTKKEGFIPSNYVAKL

Kd (25 °C)	Stoichiometry	-TΔS (25 °C)	ΔG (25 °C)	ΔH (25 °C)	ΔH (25 °C, listed as S2ERh)	Substance
6 nM and 6.1 nM						AcVELARRPLPPLPN-NH2 (Ac-VE(Rh2(OAc)3)LARRPLPPLPN-NH2; also: metal complex: Glu2 carboxylate bound to dirhodium(II) triacetate) [S2E^Rh, rhodium(II) metallopeptide made from S2E peptide (Ac…-NH2) and Rh2(tfa)(OAc)3]
	1.1	2.7 kcal/mol	-11.2 kcal/mol	–13.9 kcal mol-1	-13.9 kcal/mol	AcVELARRPLPPLPN-NH2 [S2E^Rh]
